From patent publication US10562897B2, “Substituted 3,4-dihydro-2H-pyrido[1,2-a]pyrazine-1,6-diones as gamma secretase modulators” (Janssen Pharmaceutica NV, priority 2014, dated 2020)
Counter-ions that a name gives are not always drawn. Like-named read-outs stand apart in the source and are kept apart here.

What was measured:
Aβ42 = assay: In vivo efficacy: brain level of soluble Aβ42, non-transgenic rodents, single oral dose 30 mg/kg, 4 h, MSD electrochemiluminescence, untreated control = 100; parameters: species or system mouse; conditions: for response vs control in vivo at 30 mg/kg: Mus musculus, read-out: Aβ42 (% vs Ctrl) _Mean
Excerpt: (§1) To determine whether acute administration of an Aβ42 lowering agent would reduce Aβ42 levels in vivo, non-transgenic rodents, e.g. mice or rats were used. Animals treated with the Aβ42 lowering agent were examined and compared to those untreated or treated with vehicle and brain levels of soluble Aβ42, Aβ40, Aβ38, and Aβ37 were quantitated by Meso Scale Discovery's (MSD) electrochemiluminescence detection technology. Treatment periods varied from hours (h) to days and were adjusted based on the results of the Aβ42 lowering once a time course of onset of effect could be established.
(§2) A typical protocol for measuring Aβ42 lowering in vivo is shown but it is only one of many variations that could be used to optimize the levels of detectable Aβ. For example, Aβ42 lowering compounds were formulated in 20% of Captisol® (a sulfobutyl ether of β-cyclodextrin) in water or 20% hydroxypropyl β cyclodextrin. The Aβ42 lowering agents were administered as a single oral dose or by any acceptable route of administration to overnight fasted animals. After 4 h, the animals were sacrificed and Aβ42 levels were analysed.
(§3) Blood was collected by decapitation and exsanguinations in EDTA-treated collection tubes. Blood was centrifuged at 1900 g for 10 minutes (min) at 4° C. and the plasma recovered and flash frozen for later analysis. The brain was removed from the cranium and hindbrain. The cerebellum was removed and the left and right hemisphere were separated. The left hemisphere was stored at −18° C. for quantitative analysis of test compound levels. The right hemisphere was rinsed with phosphate-buffered saline (PBS) buffer and immediately frozen on dry ice and stored at −80° C. until homogenization for biochemical assays.
(§4) Mouse brains from non-transgenic animals were resuspended in 8 volumes of 0.4% DEA (diethylamine)/50 mM NaCl containing protease inhibitors (Roche-11873580001 or 04693159001) per gram of tissue, e.g. for 0.158 g brain, add 1.264 ml of 0.4% DEA. All samples were homogenized in the FastPrep-24 system (MP Biomedicals) using lysing matrix D (MPBio #6913-100) at 6 m/s for 20 seconds. Homogenates were centrifuged at 20800×g for 5 min and supernatants collected. Supernatants were centrifuged at 221.300×g for 50 min. The resulting high speed supernatants were then transferred to fresh eppendorf tubes. Nine parts of supernatant were neutralized with 1 part 0.5 M Tris-HCl pH 6.8 and used to quantify Aβ.
(§5) To quantify the amount of Aβ42, Aβ40, Aβ38, and Aβ37 in the soluble fraction of the brain homogenates, simultaneous specific detection of Aβ42, Aβ40, Aβ38, and Aβ37 was performed using MSD's electro-chemiluminescence multiplex detection technology. In this assay purified monoclonal antibodies specific for Abeta37 (JRD/Aβ37/3), Abeta38 (J&JPRD/Aβ38/5), Abeta40 (JRF/cAβ40/28), and Abeta42 (JRF/cAβ42/26) were coated on MSD 4-plex plates. Briefly, the standards (a dilution of synthetic Aβ42, Aβ40, Aβ38, and Aβ37) were prepared in 1.5 ml Eppendorf tube in Ultraculture, with final concentrations ranging from 10000 to 0.3 pg/m. The samples and standards were co-incubated with Sulfo-tag labelled JRF/rAß/2 antibody to the N-terminus of Aβ as detector antibody. 50 μl of conjugate/sample or conjugate/standards mixtures were then added to the antibody-coated plate. The plate was allowed to incubate overnight at 4° C. in order to allow formation of the antibody-amyloid complex. Following this incubation and subsequent wash steps the assay was finished by adding read buffer according to the manufacturer's instructions (Meso Scale Discovery, Gaitherburg, Md.).
(§6) The SULFO-TAG emits light upon electrochemical stimulation initiated at the electrode. MSD Sector instrument SI6000 was used for signal read-out.
In this model a Aß42 lowering compared to untreated animals would be advantageous, in particular a Aß42 lowering with at least 10%, more in particular a Aß42 lowering with at least 20%. […]

Aβ40 = assay: In vivo efficacy: brain level of soluble Aβ40, non-transgenic rodents, single oral dose 30 mg/kg, 4 h, MSD electrochemiluminescence, untreated control = 100; parameters: species or system mouse; conditions: for response vs control in vivo at 30 mg/kg: Mus musculus, read-out: Aβ40 (% vs Ctrl) _Mean
Excerpt: as §1, §2, §3, §4, §5
The SULFO-TAG emits light upon electrochemical stimulation initiated at the electrode. MSD Sector instrument SI6000 was used for signal read-out. […]

Aβ38 = assay: In vivo efficacy: brain level of soluble Aβ38, non-transgenic rodents, single oral dose 30 mg/kg, 4 h, MSD electrochemiluminescence, untreated control = 100; parameters: species or system mouse; conditions: for response vs control in vivo at 30 mg/kg: Mus musculus, read-out: Aβ38 (% vs Ctrl) _Mean
Excerpt: To determine whether acute administration of an Aβ38 increasing agents would increase Aβ38 levels in vivo, non-transgenic rodents, e.g. mice or rats were used. Animals treated with the Aβ38 increasing agents were examined and compared to those untreated or treated with vehicle and brain levels of soluble Aβ42, Aβ40, Aβ38, and Aβ37 were quantitated by MSD electrochemiluminescence detection technology.
Treatment periods varied from hours (h) to days and were adjusted based on the results of the Aβ38 increase once a time course of onset of effect could be established.
as §2, with “measuring Aβ38 increase” for “measuring Aβ42 lowering”, “example, Aβ38 increasing agents” for “example, Aβ42 lowering compounds”, “The Aβ38 increasing” for “The Aβ42 lowering”, “and Aβ38” for “and Aβ42”
as §3, §4
as §5, with “[…].” for “pg/m.”
as §6
In this model a Aß38 increase compared to untreated animals would be advantageous, in particular a Aß38 increase with at least 10%, more in particular a Aß38 increase with at least 20%. […]

[1] = dose 30 mg/kg oral dosing, 30 mg/kg

Row | Compound | melting point | other results
1 | Cc1cn(-c2ccc3n(c2=O)C[C@@H](C)N(Cc2coc4c(Cl)c(Cl)ccc24)C3=O)cn1 [Compound 97] | 227 °C | 
2 | Cc1cn(-c2ccc3n(c2=O)C[C@@H](C)N(Cc2cc(OC4CC4)cc(C(F)(F)F)c2)C3=O)cn1 (as salt: HCl) [Compound 33] | 149 °C | 
3 | Cc1cn(-c2ccc3n(c2=O)CCN(C(C)c2coc4cc(F)c(Cl)cc24)C3=O)cn1 (single isomer, unassigned) [Compound 60] | 234 °C | 
4 | Cc1cn(-c2ccc3n(c2=O)CC(C)N(Cc2ccc(C)c(N4CC5CC5C4)c2)C3=O)cn1 (centres unmarked) [Compound 30] |  | response vs control in vivo at 30 mg/kg (Aβ42; po, dose 30 mg/kg oral dosing): 118%; response vs control in vivo at 30 mg/kg (Aβ40; po, dose 30 mg/kg oral dosing): 126%; response vs control in vivo at 30 mg/kg (Aβ38; po, dose 30 mg/kg oral dosing): 121%
5 | Cc1cn(-c2ccc3n(c2=O)C[C@@H](C)N(Cc2coc4ccc(OC(F)(F)F)cc24)C3=O)cn1 [Compound 83] |  | response vs control in vivo at 30 mg/kg (Aβ42; sc, 30 mpk sc): 40%; response vs control in vivo at 30 mg/kg (Aβ40; sc, 30 mpk sc (footnote *)): 41%; response vs control in vivo at 30 mg/kg (Aβ38; sc, 30 mpk sc): 166%
6 | Cc1cn(-c2ccc3n(c2=O)CC(C)N(Cc2ccc(C)c(N4CC5CC5C4)c2)C3=O)cn1 (centres unmarked) (as salt: HCl) [Compound 30] | 122 °C | 
7 | Cc1cn(-c2ccc3n(c2=O)CC(C)N(Cc2noc4ccc(Cl)cc24)C3=O)cn1 (centres unmarked) [Compound 14] | 147 °C | 
8 | Cc1cn(-c2ccc3n(c2=O)CCN(CC2Cc4c(cccc4C(F)(F)F)O2)C3=O)cn1 (centres unmarked) [Compound 44] | 128 °C | 
9 | Cc1cn(-c2ccc3n(c2=O)CCN(Cc2coc4c(F)cc(Cl)cc24)C3=O)cn1 [Compound 56] | 232 °C | 
10 | Cc1cn(-c2ccc3n(c2=O)C[C@@H](C)N(Cc2coc4ccc(Cl)cc24)C3=O)cn1 [Compound 55] |  | response vs control in vivo at 30 mg/kg (Aβ42; po, dose 30 mg/kg oral dosing): 93%; response vs control in vivo at 30 mg/kg (Aβ40; po, dose 30 mg/kg oral dosing): 113%; response vs control in vivo at 30 mg/kg (Aβ38; po, dose 30 mg/kg oral dosing): 142%
11 | Cc1cn(-c2ccc3n(c2=O)C[C@@H](C)N(Cc2coc4c(F)cc(Cl)cc24)C3=O)cn1 [Compound 62] |  | response vs control in vivo at 30 mg/kg (Aβ42; po, dose 30 mg/kg oral dosing): 82%; response vs control in vivo at 30 mg/kg (Aβ40; po, dose 30 mg/kg oral dosing): 87%; response vs control in vivo at 30 mg/kg (Aβ38; po, dose 30 mg/kg oral dosing): 113%
12 | Cc1cn(-c2ccc3n(c2=O)C[C@@H](C)N(Cc2noc4ccc(C(F)(F)F)cc24)C3=O)cn1 [Compound 101] | 140 °C | 
13 | Cc1cn(-c2ccc3n(c2=O)C[C@@H](C)N(CCc2cc(OC4CC4)cc(C(F)(F)F)c2)C3=O)cn1 (as salt: HCl) [Compound 40] | 102 °C | 
14 | Cc1cn(-c2ccc3n(c2=O)C[C@@H](C)N(Cc2cc4cc(C(F)(F)F)ccc4o2)C3=O)cn1 [Compound 26] | 164 °C | 
15 | Cc1cn(-c2ccc3n(c2=O)CC(C)N(C(C)c2cc(OC4CC4)cc(C(F)(F)F)c2)C3=O)cn1 (centres unmarked) (as salt: HCl) [Compound 48] | 122 °C | 
16 | Cc1cn(-c2ccc3n(c2=O)CC(C)N(C(C)c2cc(OC4CC4)cc(C(F)(F)F)c2)C3=O)cn1 (centres unmarked) [Compound 49] |  | Aβ42 (% vs Ctrl) _Mean (Aβ42; [1]): 85 % vs Ctrl; Aβ40 (% vs Ctrl) _Mean (Aβ40; [1]): 101 % vs Ctrl; Aβ38 (% vs Ctrl) _Mean (Aβ38; [1]): 123 % vs Ctrl
17 | Cc1cn(-c2ccc3n(c2=O)CC(C)N(C(C)c2coc4ccc(C(F)(F)F)cc24)C3=O)cn1 (centres unmarked) [Compound 79] |  | response vs control in vivo at 30 mg/kg (Aβ42; sc, 30 mpk sc): 54%; response vs control in vivo at 30 mg/kg (Aβ40; sc, 30 mpk sc (footnote *)): 62%; response vs control in vivo at 30 mg/kg (Aβ38; sc, 30 mpk sc): 175%
18 | Cc1cn(-c2ccc3n(c2=O)C[C@@H](C)N(Cc2coc4cc(F)c(Cl)cc24)C3=O)cn1 [Compound 63] |  | response vs control in vivo at 30 mg/kg (Aβ42; sc, 30 mpk sc): 58%; response vs control in vivo at 30 mg/kg (Aβ40; sc, 30 mpk sc (footnote *)): 62%; response vs control in vivo at 30 mg/kg (Aβ38; sc, 30 mpk sc): 135%
19 | Cc1cn(-c2ccc3n(c2=O)C[C@@H](C)N(Cc2csc(C(F)(F)F)c2)C3=O)cn1 [Compound 28] | 162 °C | 
20 | Cc1cn(-c2ccc3n(c2=O)C[C@@H](C)N(Cc2cnn4ccc(C(F)(F)F)cc24)C3=O)cn1 [Compound 9] | 170 °C | 
21 | Cc1cn(-c2ccc3n(c2=O)C[C@@H](C)N(CC2(c4cc(OC5CC5)cc(C(F)(F)F)c4)CC2)C3=O)cn1 (as salt: HCl) [Compound 53] | 197 °C | 
22 | Cc1cn(-c2ccc3n(c2=O)C[C@@H](C)N(Cc2cc(C(C)C)nn2CC(F)(F)F)C3=O)cn1 [Compound 19] | 144 °C | 
23 | Cc1cn(-c2ccc3n(c2=O)CC(C)N(C(C)c2ccc(OC(F)(F)F)c(O)c2)C3=O)cn1 (centres unmarked) (as salt: HCl) [Compound 51] | 212 °C | 
24 | Cc1cn(-c2ccc3n(c2=O)CC(C)N(C(C)c2coc4c(F)cc(Cl)cc24)C3=O)cn1 (centres unmarked) [Compound 96] | 201 °C | 
25 | Cc1cn(-c2ccc3n(c2=O)C[C@@H](C)N(Cc2csc(CC(F)(F)F)c2)C3=O)cn1 [Compound 29] | 110 °C | 
26 | Cc1cn(-c2ccc3n(c2=O)CC(C)N(C(C)c2ccc(OC(F)(F)F)c(O)c2)C3=O)cn1 (centres unmarked) (as salt: HCl) [Compound 52] | 223 °C | 
27 | Cc1cn(-c2ccc3n(c2=O)CC(C)N(CCN2CCCC(C(F)(F)F)C2)C3=O)cn1 (centres unmarked) (as salt: HCl) [Compound 43] | 138 °C | 
28 | Cc1cn(-c2ccc3n(c2=O)CCN(C(C)c2coc4cc(C(F)(F)F)ccc24)C3=O)cn1 (single isomer, unassigned) [Compound 67] | 200 °C | 
29 | Cc1cn(-c2ccc3n(c2=O)C[C@@H](C)N(Cc2coc4c(C(F)(F)F)cccc24)C3=O)cn1 [Compound 71] | 225 °C | 
30 | Cc1cn(-c2ccc3n(c2=O)CCN(C(C)c2coc4cc(C(F)(F)F)ccc24)C3=O)cn1 (single isomer, unassigned) [Compound 68] | 204 °C | 
